Measured values published in PMC10898118, “Biocatalytic cascade to polysaccharide amination” (Biotechnology for Biofuels and Bioproducts, 2024).

Molecular target: T1, CvATA (Chromobacterium violaceum, UniProt Q7NWG4)
T1 construct: gene CV_2025; dimer
T1 sequence (Q7NWG4 1-459): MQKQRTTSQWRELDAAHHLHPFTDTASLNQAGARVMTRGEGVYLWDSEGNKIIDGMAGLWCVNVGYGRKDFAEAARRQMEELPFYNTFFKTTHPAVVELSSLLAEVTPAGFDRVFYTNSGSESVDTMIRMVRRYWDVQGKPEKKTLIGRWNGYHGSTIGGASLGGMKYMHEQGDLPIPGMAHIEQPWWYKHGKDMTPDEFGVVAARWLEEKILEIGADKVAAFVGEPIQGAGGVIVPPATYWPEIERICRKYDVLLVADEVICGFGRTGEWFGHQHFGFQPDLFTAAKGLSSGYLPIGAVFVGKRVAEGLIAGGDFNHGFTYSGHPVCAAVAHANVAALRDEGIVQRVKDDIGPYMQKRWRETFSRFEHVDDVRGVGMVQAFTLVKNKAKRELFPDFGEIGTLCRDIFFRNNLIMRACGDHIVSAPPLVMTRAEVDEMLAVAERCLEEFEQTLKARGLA
Assay: acetophenone assay, UV […] nm
Type: biochemical
Settings: 5 mM galactose pre-oxidized in situ by FgrGaOx (catalase, HRP), 5 mM (S)-1-phenylethylamine, 20 µM PLP, 50 mM HEPES pH 7.5, 37 °C

With O=C[C@@H](O)[C@H](O)[C@H](O)[C@@H](O)C=O [oxidized galactose] the “acetophenone assay, UV 245 nm” value was “initial activity of CvATA on pyruvate and oxidized galactose”.
